# In article PMC12439166, “Dietary flavonoids form supramolecular assemblies, alter biochemistry, and enhance cell resilience” (Frontiers in Nutrition, 2025):
# Biological target: T1, Sirtuin-3 (SIRT3) (Homo sapiens, UniProt Q9NTG7)
# T1 sequence (Q9NTG7 1-399): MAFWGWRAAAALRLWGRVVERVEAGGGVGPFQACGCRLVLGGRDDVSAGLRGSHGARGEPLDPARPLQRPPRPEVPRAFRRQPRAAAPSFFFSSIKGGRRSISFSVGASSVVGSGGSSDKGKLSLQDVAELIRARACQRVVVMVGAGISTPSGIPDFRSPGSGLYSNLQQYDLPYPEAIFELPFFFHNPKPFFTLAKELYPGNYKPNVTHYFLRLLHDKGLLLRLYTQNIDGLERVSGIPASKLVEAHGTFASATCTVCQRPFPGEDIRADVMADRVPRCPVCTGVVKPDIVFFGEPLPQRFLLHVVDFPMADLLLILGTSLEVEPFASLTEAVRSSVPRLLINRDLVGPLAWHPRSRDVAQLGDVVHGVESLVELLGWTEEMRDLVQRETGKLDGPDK
# Assay: Enzyme activity assay (SAMDI-MS), SIRT3
# Type: biochemical
# Details: 10 concentrations, 5 nM to 100 μM, compounds incubated with enzyme 30 min, result in words
# Experimental: Enzyme screens were performed by SAMDI Tech (contract research organization); enzyme assays were performed in a 20 μL volume in 384-well low-volume polypropylene microtiter plates (Greiner Bio-One) at room temperature. The enzymes [Arginase 1 (ARG1), Lysine demethylase 4C (KDM4C), MAP/microtubule affinity-regulating kinase 4 (MARK4), Histone-Lysine N-methyltransferase (NSD2), Tyrosine-protein phosphatase non-receptor type 1 (PTP1B), and Sirtuin-3 (SIRT3)] were incubated with compounds for 30 min prior to initiation of the reaction by the addition of substrate and cofactors (if required). […] SAMDI MS was performed using reflector positive mode on an AB Sciex TOF-TOF 5800 System (AB Sciex, Framingham, MA) with 400 shots/spot analyzed in a random raster sampling. For data analysis, the area under the curves (AUCs) for the product peak and substrate peak were calculated using the TOF/TOF Series Explorer (AB Sciex), and the amount of product formed was calculated using the equation AUC product / (AUC product + AUC Substrate). […]
# IC50 values of enzyme inhibition. Inhibition of the enzymes was measured at 10 concentration values in the range of 5 nM to 100 μM for each compound and enzyme, with two technical replicates; the percent inhibition values were determined by SAMDI software. […]
structure (smiles),measurement,setting,value
O=c1c(O)c(-c2ccc(O)c(O)c2)oc2cc(O)cc(O)c12 [quercetin],"inhibition of enzyme activity, SIRT3",listed as Quercetin,inhibited
same,"inhibition of enzyme activity, SIRT3",listed as Quercitin,concentration-dependent inhibition
